Results: US20200148682A1, “AKT ISOZYME-SPECIFIC COVALENT INHIBITORS DERIVED FROM REDOX-SIGNALING LIPIDS” (Cornell University, priority 2017, published 2020)
“Also recorded” adds a separate entry of the source.

Legend:
Assay type in all cases: cell-based
[1] = tested on: endogenous Akt; test: Biotin-azide pulldown of endogenous Akt kinases from native HEK293T cells; settings: 5 μM, 12 hours
Procedure: A fraction of each sample was used for the input blot. The remaining cell lysates were labeled with biotin-azide using standard click chemistry followed by streptavidin enrichment.
HEK293T cells were split in 100 cm^2 plates. […] Cells were harvested, washed twice with chilled 1×DPBS and flash frozen. Cell lysis was performed in 200 μL lysis buffer following general procedure described in Example 13, Each lysate was subsequently diluted to 2 mg/mL with lysis buffer and a small fraction of each lysate sample was kept for input gel. The remaining lysates were subjected to click reaction with biotin-azide for 30 min at 37° C. The final concentrations of each component was: 2 mM TCEP, 5% t-BuOH, 1% SDS, 1 mM CuSO4, 0.1 mM Cu(TBTA), 10 μM biotin-azide and 1.2 mg/mL lysate protein. The lysate proteins were precipitated by adding four volumes of ethanol pre-chilled at −20° C. The sample was vortexed and incubated at −80° C. overnight (or at least 4 hours). The precipitant was collected by centrifugation at 20,000×g for 30 min at 4° C. and washed twice with pre-chilled methanol then acetone. The pellet was resuspended in 25 μL 50 mM HEPES (pH 7.6), 8% LDS and 0.5 μM EDTA and dissolved by vortexing and heating at 42° C. for 5 min. […]

[2] = target: T1, Halo-Akt3 (Homo sapiens, UniProt Q9Y243); test: In-gel fluorescence assay (Cy5-azide click) of covalent labeling in transfected HEK293T cells; settings: 5 μM, 48 hours
T1 construct: expressed in transfected cells; host or cells: HEK293T
T1 sequence (Q9Y243 whole entry): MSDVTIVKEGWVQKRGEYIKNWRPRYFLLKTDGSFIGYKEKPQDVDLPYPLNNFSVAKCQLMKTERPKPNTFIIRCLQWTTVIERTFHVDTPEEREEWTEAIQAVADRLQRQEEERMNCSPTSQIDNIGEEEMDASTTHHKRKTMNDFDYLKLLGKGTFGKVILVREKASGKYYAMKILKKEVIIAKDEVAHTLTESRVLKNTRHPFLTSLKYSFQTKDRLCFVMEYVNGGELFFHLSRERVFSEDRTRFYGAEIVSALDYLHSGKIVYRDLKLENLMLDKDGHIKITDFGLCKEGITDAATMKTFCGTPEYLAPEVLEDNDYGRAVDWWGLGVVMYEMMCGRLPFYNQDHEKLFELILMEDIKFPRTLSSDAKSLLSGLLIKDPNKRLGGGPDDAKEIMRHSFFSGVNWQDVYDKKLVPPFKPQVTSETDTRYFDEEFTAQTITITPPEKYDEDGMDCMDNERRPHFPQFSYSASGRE
Procedure: HEK293T cells were transfected with Halo-Akt3 for 20 hours, then treated with the stated compound (5 μM, 48 hours). After this time, cells were lysed and the labeling was assayed by click chemistry. […] FIGS. 19A, 19C top gels are images showing in gel fluorescence, Cy5 channel. M is a molecular weight ladder. FIG. 19A, 19C lower panels are images of western blots (probing for Halo and actin, respectively) transferred from the same gel as the top image. […] FIGS. 19E-19F are graphs showing quantitation of in-gel Cy5 signal intensity, divided by the western blot signal for Halo.
Cell transfection with the designated plasmid encoding a given HaloTag-Akt fusion gene was carried out following the general procedure described in Example 12. After 20-24 hours, the transfection media were aspirated and replaced with fresh 2 mL rinse MEM medium supplemented with 3% FBS containing the indicated concentration of inhibitor or the equivalent final volume of DMSO and the plates were incubated for the indicated period of time. Cells were then harvested and lysed following the general procedure described in Examples 11 and 13. A portion of the lysate was made up to 25 μL final volume containing, in final concentrations, 5% t-BuOH, [2 mM TCEP, 1% SDS, 1 mM CuSO4, 0.1 mM Cu(TBTA), 10 μM Cy5 azide made up as a 10× stock in water] and 1.0 mg/mL lysate protein. The samples were incubated at 37° C. for 30 min and subsequently quenched with 8 μL of 4×Laemmeli dye containing 6% f ME. After an additional 5-min incubation at 37° C., samples were resolved on a 10% SDS-PAGE gel following the general procedure described in Example 14. After electrophoresis, the gel was rinsed three times with ddH2O and imaged on a Bio-Rad Chemi-doc-MP Imager. Where applicable, the gel was transferred to a PVDF membrane for western blot analysis following the general procedure described in Example 15.

[3] = target: T2, Akt3(C119S) (Homo sapiens, UniProt Q9Y243, C119S); test: AKTAR FRET assay in live HEK293T cells; settings: for Akt3(C119S) activity (FRET) during treatment: 5 μM; for Akt3(C119S) activity (FRET) after drug withdrawal: 24 hours after removal from media
T2 construct: expressed in transfected cells; host or cells: HEK293T
T2 sequence (Q9Y243 whole entry C119S): as the sequence (Q9Y243 whole entry) above, with C119S counted along it
Procedure: (§1) FIGS. 21C-21D: HEK293T cells were transfected with plasmids encoding AKTAR and Halo-Akt3 (1:1). After 12 hours, cells were treated with MK-2206 (5 μM) or MK-HNE (5 μM). After 24 hours and 48 hours Akt3 activity was measured using ratiometric FRET analysis in live cells. After 48 hours, cells were washed two times with drug-free media containing 10% FBS and allowed to recover in 3% FBS MEM media for another 24 hours, after which time Akt3 activity was assayed using FRET again. wd=withdrawal for 24 hours. […] FIG. 21D is a graph showing quantitation of all data sets for treatment of HEK293T cells expressing Halo-Akt3/AKTAR. […] FIG. 21F is a graph showing quantitation of all data sets for treatment of HEK293T cells expressing Halo-Akt2/AKTAR. […] FIG. 21H is a graph showing quantitation of all data sets for treatment of HEK293T cells expressing Halo-Akt3C119S mutant/AKTAR.
(§2) HEK293T cells were plated in imaging plates at 60% confluence. After 24 hours, cells in each plate were transfected with 1 μg AktAR reporter plasmid and 1 μg plasmid of the designated HaloTag fusion Akt gene in PCS2+8 vector, using TransIT 2020 (6 μL) (FIG. 21B). 12 hours after transfection, cells were treated with 5 μM inhibitor or the equivalent final volume of DMSO in rinse medium containing 3% FBS and incubated for 24 hours before imaging. FRET imaging was performed using a Zeiss LSM 710 confocal microscope as previously described. Briefly, a 458 nm argon laser was used for excitation. The signals in the cyan channel (463-498 nm) and the yellow channel (525-620 nm) were recorded. Cells were then incubated in drug medium for another 24 hours before next imaging. The medium was aspirated and the cells were gently rinsed with 3% FBS in rinse medium twice every 30 min over the next hour, Fresh rinse medium with 3% FBS was added and the cells were imaged again after 24 hours. For quantification, the mean CFP and YFP signal intensity was measured using Image by drawing a freehand circle around the cells, and the ratio image was calculated. Graphing and data analysis (Student's t-test) were performed using Prism software.
(§3) One of the key benefits of covalent inhibition is the ability to uncouple pharmacokinetics from pharmacodynamics. This effect is achieved, because once irreversible inhibition occurs, an irreversible inhibitor will remain bound to its target post clearance of the unbound inhibitor. On the other hand, for a reversible inhibitor, as drug concentration drops, the drug is released from its target and inhibition is lost. This situation can be modeled in cell culture by removal of the drug from the media and measuring changes in activity as a function of time post drug removal. Akt inhibition was assayed using AKTAR (FIG. 21A). This fusion of two fluorescent proteins emits two different frequencies of light when excited with blue light, depending on the activity of Akt. When the construct is selectively phosphorylated by Akt, both blue and green light are emitted, due to fluorescence resonance energy transfer (FRET) from the CFP to the YFP. However, when the protein is not phosphorylated, emission is mainly in the blue channel. Thus the ratio of green to blue emission is a direct readout of Akt activity in live cells.

[4] = target: T3, Halo-Akt2 (Homo sapiens, UniProt P31751); test: AKTAR FRET assay in live HEK293T cells; settings: 5 μM, 24 hours
T3 construct: expressed in transfected cells; host or cells: HEK293T
T3 sequence (P31751 whole entry): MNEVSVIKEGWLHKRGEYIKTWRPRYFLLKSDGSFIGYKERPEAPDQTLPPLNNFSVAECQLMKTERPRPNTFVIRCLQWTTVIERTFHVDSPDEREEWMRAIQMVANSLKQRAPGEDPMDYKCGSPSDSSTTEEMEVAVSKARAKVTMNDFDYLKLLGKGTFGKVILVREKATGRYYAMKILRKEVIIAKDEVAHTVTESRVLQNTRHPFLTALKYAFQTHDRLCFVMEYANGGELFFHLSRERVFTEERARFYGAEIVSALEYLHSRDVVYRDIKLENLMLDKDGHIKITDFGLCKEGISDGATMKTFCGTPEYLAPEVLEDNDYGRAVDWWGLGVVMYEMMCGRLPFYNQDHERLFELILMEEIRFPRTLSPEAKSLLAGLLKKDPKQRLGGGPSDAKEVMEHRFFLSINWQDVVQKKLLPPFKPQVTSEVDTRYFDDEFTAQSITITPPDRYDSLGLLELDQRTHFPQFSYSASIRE
Procedure: as §1, §2, §3

[5] = target: T1, Halo-Akt3; test: AKTAR FRET assay in live HEK293T cells; settings: for Akt3 activity (green/blue FRET ratio) during treatment: 5 μM, 24 hours
Procedure: as §1, §2, §3

[6] = tested on: six other cultured cell lines (breast cancer lines not PTEN-null TNBC, fibroblast lines); test: Cell viability assay (AlamarBlue), six other cultured cell lines; settings: for toxicity and selectivity across cell lines: 3 days
Procedure: After this time, cells were lysed and analyzed by antibodies for phosphorylated T305 (pT305) of Akt3, Halo (Akt), and Actin (loading control). […] FIG. 23F is a graph showing proliferation curves. […] After this time, the number of viable cells was calculated using AlamarBlue®. Proliferation curves were fitted to the PI50 equation (EQN. 4). […] FIG. 23H is a graph showing the percentage of viable cells. […] The percentage of growth relative to DMSO-treated cells is shown for the 48 hour point and the 72 hour point. FIG. 23I is a schematic showing the different methods used to derive the data in 23H.
Indicated cells were plated in a 96-well plate containing the DMEM complete medium (see Example 11 for complete medium formulation, 100 μL per well) with a density of 3,000-5,000 cells per well for 12 hours followed by the addition of varying concentrations of inhibitors in rinse medium (100 μL). The cells were allowed to grow for 72 hours and 100 μL of the culture medium was removed from each well. This was followed by the addition of 10 μL AlamarBlue® reagent to each well. The fluorescence emission signals at 590 nm were read by Cytation 3 cell imaging multi-mode reader (BioTeK) using an excitation wavelength of 560 nm. Curve fitting and data analysis were performed using Prism software.

Row | SMILES | labeling of endogenous Akt (streptavidin enrichment, anti-pan-Akt blot) [1] | covalent labeling of Halo-Akt3 [2] | Akt3(C119S) activity (FRET) during treatment [3] | Akt3(C119S) activity (FRET) after drug withdrawal [3] | Akt2 activity (green/blue FRET ratio) during treatment [4] | Akt3 activity (green/blue FRET ratio) during treatment [5] | Akt3 activity (green/blue FRET ratio) after drug withdrawal ([5]; 48 hours drug, then 24 hours withdrawal) | toxicity and selectivity across cell lines [6] | PI50(MK-FNE)/PI50(MK-2206) ([6]; all but PTEN-null TNBC lines, except TSE) | PI50(MK-FNE)/PI50(MK-2206) ([6]; some lines)
1 | C#CCCCC(O)/C=C/C(=O)NC1(c2ccc(-c3nc4ccn5c(=O)[nH]nc5c4cc3-c3ccccc3)cc2)CCC1.Cl (stereo not shown) [MK-HNE, (E)-8-(4-(1-(4-Hydroxynon-2-en-8-ynamido)cyclobutyl)phenyl)-3-oxo-9-phenyl-2,3-dihydro-[1,2,4]triazolo[3,4-f][1,6]naphthyridin-7-ium Chloride] | enrichment of endogenous Akt protein(s) | labeling was observed; also recorded: able to elicit covalent labeling | Akt inhibition was observed | no inhibition was observed |  |  |  |  |  | 
2 | NC1(c2ccc(-c3nc4ccn5c(=O)[nH]nc5c4cc3-c3ccccc3)cc2)CCC1 [MK-2206] |  |  | Akt inhibition was observed | no inhibition was observed | decrease in green/blue fluorescence | decrease in green/blue fluorescence | returned to those observed in untreated cells | generally toxic to most lines |  | 
3 | C#CCCCC(F)/C=C/C(=O)NC1(c2ccc(-c3nc4ccn5c(=O)[nH]nc5c4cc3-c3ccccc3)cc2)CCC1.Cl (stereo not shown) [MK-FNE, (E)-8-(4-(1-(4-Fluoronon-2-en-8-ynamido)cyclobutyl)phenyl)-3-oxo-9-phenyl-2,3-dihydro-[1,2,4]triazolo[3,4-f][1,6]naphthyridin-7-ium Chloride] |  | able to elicit covalent labeling |  |  | decrease in green/blue fluorescence | decrease in green/blue fluorescence |  | significantly selective against PTEN-null TNBC lines | greater than 2 | above 8
